Data: patent US11591363B2, “Crystalline forms of beta-sitosterol” (CENTER FOR I[…] IN CRYSTAL ENGINEERING, S.L., priority 2017, dated 2023)
Converted amounts (≈) assume the structure as drawn. Where two headings read alike, the source gives them in different places.

How the values were obtained:
[1] = Solubility test, shake-flask in FaSSIF-V2; format: physicochemical; conditions: for solubility at 24 h: thermodynamic from solid, read-out: Log S (logarithm of S in mol/L) (converted); for solubility, comparison between tested samples: FaSSIF-V2, pH 6.5, 25° C.
Procedure: This test is focused on evaluating the solubility in Fasted State Simulated Intestinal Fluid (FaSSIF-V2).
5.1. Samples • Comparative sample A (reference): Standard sample of beta-Sitosterol from the Ph. Eu. Reference Standard, ref. (Y0001615) • Sample A: hydrate crystal of beta-sitosterol having 1.25 molecules of water of the present invention • Sample B: cocrystal of beta-sitosterol and gallic acid Form 5 of the present invention
Solubility is determined in FaSSIF-V2 media, prepared as stated by Biorelevant.com using maleic acid buffer (pH=6.5).
All experiments are done under temperature control at 25±1° C. The weight of tested samples expressed in mg, and FaSSIF final volume expressed in mL are as defined in Table below:
Shaking time: 24 h in a rotational stirrer. After 4-5 h of shaking, pH is measured and readjusted to the initial value (6.5) in case it is needed. • Equilibration time: 24 h • Final pH measurement • Phase separation: filtration through a hydrophilic filter (PTFE membrane, 0.45 μm porous size, 4 mm diameter, Millex-LH, Millipore). Before the filtration, the filter was conditioned with sample solution for 1 h. After that time, filtration started rejecting the first drops of sample. • Solid form characterization: solid obtained after filtration is analysed by XRPD to know the exact solid form obtained after the shake-flask procedure. In case of cocrystals, XRPD analysis confirms that experiments are done under eutectic point conditions. • Liquid phase is used for API and coformer quantification.
5.3.2. HPLC Quantification • Instrument: Shimadzu HPLC, with diode array detector (SPD-M10AVPI), two pumps (LC-10ADVP), autoinjector (SIL-10ADVP) and column oven (CTO-10ASVP). • Column:
For comparative sample A and sample A quantification: Phenomenex Kinetex C18, 100×4.6 mm, 2.6 μm. For sample B quantification: Phenomenex Luna C18, 150×4.6 mm, 5 μm. • Conditions:
For comparative sample A and sample A quantification: Mobile phase composed of 80% Methanol-20% Acetonitrile. Isocratic conditions. Flow: 0.8 mL/min. Injection volume: 20 μL.
For sample B quantification: Mobile phase composed of 20 mM formic acid at pH=3 (A) and methanol (B). Gradient conditions: 0-3 min, 5% B; 8 min, 10% B; 15 min, 100% B; 17 min, 5% B; 25 min, 5% B. Flow: 1 mL/min. Injection volume: 10 μL.
Quantification wavelength: 210 nm for comparative sample A and 280 nm for sample A.
The amounts of comparative sample A, sample A and sample B in the filtered solutions coming from Shake-Flask (SF) experiments have been quantified according to the described methodology.
Solubility of the samples A and B has been calculated through the equilibrium concentrations in the eutectic point as described in “S. J. Bethune, N. Huang, A. Jayasankar, N. Rodriguez-Hornedo, Crystal Growth and Design 9, 2009, 3976-3988”, taking into account the stoichiometry of each sample.

[2] = Particle size test by laser diffraction; format: physicochemical
Excerpt: This test provides the particle size of the co-crystals of the present invention in comparison with the comparaitive Standard sample of beta-Sitosterol from the Ph. Eu. Reference Standard, ref. (Y0001615)
7.1. Tested Samples • Comparative sample A: comparaitive Standard sample of beta-Sitosterol from the Ph. Eu. Reference Standard, ref. (Y0001615) • Sample A: hydrate crystal of beta-sitosterol having 1.25 molecules of water of the present invention • Sample B: cocrystal of beta-sitosterol and gallic acid Form 5 of the present invention • Sample C: cocrystal of beta-sitosterol and propionic acid Form 2 of the present invention
The particle size was performed by laser diffraction. For this purpose, a Beckman-Coulter model. LS13320 laser diffractometer (Fullerton, Calif., USA) was equipped with a Micro. Liquid Module (MLM) wet dispersion modul, an an optic model (Fraunhofer. Rdf, PIDS). The measurement range is 0.4-2000 μm.

[3] = system: Plasma cholesterol levels; assay: Activity test: plasma cholesterol after oral load of lard; format: in vivo, Golden Syrian male Hamsters; conditions: measured at 5 h (T5) vs T0, oral load of lard 2.5 g/kg BW supplemented with 0.513 g/kg BW
[4] = system: circulating β-sitosterol levels; assay: Activity test: sitosterolemia (plasma beta-sitosterol, GC-FID) after oral load of lard; format: in vivo, Golden Syrian male Hamsters; conditions: for decrease in circulating levels of β-sitosterol: 5 h post-treatment (T5) with respect to T0 value, oral load of lard 2.5 g/kg BW supplemented with 0.513 g/kg BW
[5] = system: Plasma triglyceride levels; assay: Activity test: plasma triglycerides after oral load of lard; format: in vivo, Golden Syrian male Hamsters; conditions: for reduction of the plasmatic triglyceride concentration: T5 (5 h) vs T0
[6] = Bioavailability assessment: plasma beta-sitosterol after 21 days high-fat diet
[7] = FaSSIF-V2, pH 6.5, 25±1° C., shake-flask 24 h, value (SD)

CC[C@H](CC[C@@H](C)[C@H]1CC[C@H]2[C@@H]3CC=C4C[C@@H](O)CC[C@]4(C)[C@H]3CC[C@]12C)C(C)C [Comparative sample A, beta-sitosterol]
solubility at 24 h ([1]; FaSSIF-V2, 25 °C, pH 6.5, fassif, FaSSIF-V2, pH 6.5, 25±1° C., shake-flask 24 h, value (SD)): 0.851 µM (≈ 0.353 µg/mL)
[API] concentration of beta-sitosterol in the solutions coming from SF experiments [1, 7]: 0.36 (0.06) mg/mL
D10 [2]: 44.62 μm
D50 [2]: 108.0 μm
D90 [2]: 178.8 μm
D(3, 2) surface weighted mean diameter [2]: 30.19 μm
Mean particle size [2]: 109.9 μm

CC[C@H](CC[C@@H](C)[C@H]1CC[C@H]2[C@@H]3CC=C4C[C@@H](O)CC[C@]4(C)[C@H]3CC[C@]12C)C(C)C [cocrystal Form 2, cocrystal of beta-sitosterol and propionic acid]
decrease of plasmatic cholesterol levels ([3]; listed as Test sample C): 21%
decrease in circulating levels of β-sitosterol ([4]; listed as test sample C): 14%
D10 ([2]; listed as Sample C): 6.671 μm
D50 ([2]; listed as Sample C): 28.01 μm
D90 ([2]; listed as Sample C): 47.60 μm
D(3, 2) surface weighted mean diameter ([2]; listed as Sample C): 13.19 μm
Mean particle size ([2]; listed as Sample C): 27.77 μm
plasma triglyceride concentrations at T5, comparison between groups (FIG. 15) ([5]; 5 h post-oral fat load, 0.513 g/kg BW): lower levels at T5 in comparison with both Compound A and compound B
reduction of the plasmatic triglyceride concentration ([5]; oral load of lard 2.5 g/kg BW supplemented with 0.513 g/kg BW, listed as test sample C): 20%
Fold-change (FC) of increase of circulating beta-sitosterol with respect to controls (comparative group A) ([6]; 0.264 g beta-sitosterol/kg BW, control set to 1, listed as test sample C): 6.4
FC increment of circulating beta-sitosterol in relation to reference sample B1 value ([6]; same dose 0.264 g beta-sitosterol/kg BW): 2.7

CC[C@H](CC[C@@H](C)[C@H]1CC[C@H]2[C@@H]3CC=C4C[C@@H](O)CC[C@]4(C)[C@H]3CC[C@]12C)C(C)C [comparative sample B, beta-sitosterol]
decrease of plasmatic cholesterol levels [3]: 25%
decrease in circulating levels of β-sitosterol [4]: 23%
percentage of variation on β-sitosterol plasma levels T5 vs T0, comparison with control (FIG. 16) ([4]; 5 h post-treatment, 0.513 g/kg BW): decrease in comparison with control (group A)
increase in triglyceridemia at 5 h (T5) ([5]; T5 vs T0, oral load of lard 2.5 g/kg BW supplemented with 0.513 g/kg BW): 39%

CC[C@H](CC[C@@H](C)[C@H]1CC[C@H]2[C@@H]3CC=C4C[C@@H](O)CC[C@]4(C)[C@H]3CC[C@]12C)C(C)C [hydrate crystal form of beta-sitosterol, beta-sitosterol]
decrease of plasmatic cholesterol levels ([3]; listed as test sample D): 29%
solubility at 24 h ([1]; 25 °C, FaSSIF-V2, pH 6.5, 25±1° C., calculated through the equilibrium concentrations in the eutectic point, taking into account stoichiometry): 5.01 µM
solubility, comparison between tested samples [1]: more soluble than the commercially available beta-sitosterol
[API] concentration of beta-sitosterol in the solutions coming from SF experiments ([1]; FaSSIF-V2, pH 6.5, 25±1° C., shake-flask 24 h, value (SD), listed as Sample A): 2.5 (1) mg/mL
decrease in circulating levels of β-sitosterol ([4]; listed as test sample D): 34%
D10 ([2]; listed as Sample A): 4.145 μm
D50 ([2]; listed as Sample A): 16.39 μm
D90 ([2]; listed as Sample A): 34.63 μm
D(3, 2) surface weighted mean diameter ([2]; listed as Sample A): 8.558 μm
Mean particle size ([2]; listed as Sample A): 18.12 μm
reduction of the plasmatic triglyceride concentration ([5]; oral load of lard 2.5 g/kg BW supplemented with 0.513 g/kg BW, listed as test sample D): 2%

CC[C@H](CC[C@@H](C)[C@H]1CC[C@H]2[C@@H]3CC=C4C[C@@H](O)CC[C@]4(C)[C@H]3CC[C@]12C)C(C)C [reference sample B1, beta-sitosterol]
Fold-change (FC) of increase of circulating beta-sitosterol with respect to controls (comparative group A) ([6]; 0.264 g beta-sitosterol/kg BW, control set to 1): 2.4

CC[C@H](CC[C@@H](C)[C@H]1CC[C@H]2[C@@H]3CC=C4C[C@@H](O)CC[C@]4(C)[C@H]3CC[C@]12C)C(C)C [reference sample B2, beta-sitosterol]
Fold-change (FC) of increase of circulating beta-sitosterol with respect to controls (comparative group A) ([6]; 0.528 g/kg BW, control set to 1): 5.3

cocrystal of beta-sitosterol and benzyl alcohol [cocrystal Form 4]
decrease of plasmatic cholesterol levels [3]: 31%
decrease in circulating levels of β-sitosterol [4]: 12%
reduction of the plasmatic triglyceride concentration ([5]; oral load of lard 2.5 g/kg BW supplemented with 0.513 g/kg BW): 7%

cocrystal of beta-sitosterol and gallic acid [cocrystal Form 5]
solubility, comparison between tested samples [1]: more soluble than the remaining tested samples
[API] concentration of beta-sitosterol in the solutions coming from SF experiments [1, 7]: 3.0 (1.5) mg/mL
Log S (logarithm of S in mol/L) ([1]; FaSSIF-V2, pH 6.5, 25±1° C., calculated through the equilibrium concentrations in the eutectic point, taking into account stoichiometry): −4.7 (0.1) mol/L
D10 [2]: 3.102 μm
D50 [2]: 10.24 μm
D90 [2]: 23.21 μm
D(3, 2) surface weighted mean diameter [2]: 6.009 μm
Mean particle size [2]: 12.05 μm
Fold-change (FC) of increase of circulating beta-sitosterol with respect to controls (comparative group A) ([6]; equivalent to 0.158 g of beta-sitosterol/kg BW, control set to 1): 4.7
Fold-change (FC) of increase of circulating beta-sitosterol with respect to controls (comparative group A) ([6]; equivalent to 0.330 g of beta-sitosterol/kg BW, control set to 1): 7.9
